In US20030119813A1, “Derivatives of pyrimido[6,1-a]isoquinolin-4-one” (priority 2001, published 2003):

Experiments:
[1] = test system: LPS induced TNF-α release from human monocytes; experiment: LPS induced TNF-α release from human monocytes; type: cell-based; conditions: Monocyte
Method: 6,7-Dihydro-2-(2,6-diisopropylphenoxy)-9,10-dimethoxy-4H-pyrimido-[6,1-a]isoquinolin-4-one (compound of Example 2) was tested for effects on LPS induced TNF-α release from human monocytes.

[2] = test system: guinea-pig tracheal rings; experiment: Organ bath experiments, guinea-pig tracheal rings, electrical field stimulation; conditions: final concentration 10 μM, n=1
Method: Guinea-pig tracheal rings were suspended in organ baths under 1 g tension between two electrodes and subjected to electrical field stimulation (3 Hz, 0.1 ms duration and 20V (approx 400 mAmps) generated every 100 sec by means of physiological square wave-stimulator. The compounds of Examples 1, 2 and 8 were dissolved in DMSO containing Tween 80 (10%) and distilled water (0.01M), which were then added to the organ bath to give a final concentration of 10 μM.

[3] = test system: human mononuclear cells stimulated by PHA; experiment: Proliferation of human mononuclear cells stimulated by PHA ([3H]-thymidine); type: cell-based; conditions: PHA 2 μg/ml, n=6, read-out: IC50 against proliferation of human mononuclear cells stimulated with PHA
Method: Normal healthy volunteers underwent phlebotomy and 25 ml of blood was collected. Mononuclear cells were separated and purified according to the method of Banner et al. (Banner et al. Br. J. Pharmacol. 116 3169-3174 (1995)). Human peripheral mononuclear cells (100,000 per well) were stimulated for 24 h with phytohaemagglutinin (PHA, 2 μg/ml) in the absence or presence of the compounds of Examples 1, 2 and 8 (0.001-100 μM) at 37° C. in a 95% air, 5% CO2 atmosphere. Twenty four hours later, [^3H]-thymidine (0.1 μCi) was added to each well and the cells were incubated for a further 24 h period. Cells were then harvested onto glass fibre filters using a cell harvester (ICN Flow, Buckinghamshire) and counted in a scintillation counter.

[4] = test system: mean arterial blood pressure; experiment: Intravenous administration to urethane anaesthetised guinea-pigs, mean arterial blood pressure; type: in vivo, guinea-pig; conditions: 0.1 to 300 μg/kg
Method: 2. […] The compound was dissolved in DMSO then diluted with saline (there was evidence that the compound had come out of solution).

PDE3 (human platelet) = target: T1, PDE3 (human platelet) (Homo sapiens, UniProt Q14432); experiment: PDE3 inhibition; type: biochemical
T1 construct: (human platelet); from tissue; host or cells: human platelets
T1 sequence (Q14432 whole entry): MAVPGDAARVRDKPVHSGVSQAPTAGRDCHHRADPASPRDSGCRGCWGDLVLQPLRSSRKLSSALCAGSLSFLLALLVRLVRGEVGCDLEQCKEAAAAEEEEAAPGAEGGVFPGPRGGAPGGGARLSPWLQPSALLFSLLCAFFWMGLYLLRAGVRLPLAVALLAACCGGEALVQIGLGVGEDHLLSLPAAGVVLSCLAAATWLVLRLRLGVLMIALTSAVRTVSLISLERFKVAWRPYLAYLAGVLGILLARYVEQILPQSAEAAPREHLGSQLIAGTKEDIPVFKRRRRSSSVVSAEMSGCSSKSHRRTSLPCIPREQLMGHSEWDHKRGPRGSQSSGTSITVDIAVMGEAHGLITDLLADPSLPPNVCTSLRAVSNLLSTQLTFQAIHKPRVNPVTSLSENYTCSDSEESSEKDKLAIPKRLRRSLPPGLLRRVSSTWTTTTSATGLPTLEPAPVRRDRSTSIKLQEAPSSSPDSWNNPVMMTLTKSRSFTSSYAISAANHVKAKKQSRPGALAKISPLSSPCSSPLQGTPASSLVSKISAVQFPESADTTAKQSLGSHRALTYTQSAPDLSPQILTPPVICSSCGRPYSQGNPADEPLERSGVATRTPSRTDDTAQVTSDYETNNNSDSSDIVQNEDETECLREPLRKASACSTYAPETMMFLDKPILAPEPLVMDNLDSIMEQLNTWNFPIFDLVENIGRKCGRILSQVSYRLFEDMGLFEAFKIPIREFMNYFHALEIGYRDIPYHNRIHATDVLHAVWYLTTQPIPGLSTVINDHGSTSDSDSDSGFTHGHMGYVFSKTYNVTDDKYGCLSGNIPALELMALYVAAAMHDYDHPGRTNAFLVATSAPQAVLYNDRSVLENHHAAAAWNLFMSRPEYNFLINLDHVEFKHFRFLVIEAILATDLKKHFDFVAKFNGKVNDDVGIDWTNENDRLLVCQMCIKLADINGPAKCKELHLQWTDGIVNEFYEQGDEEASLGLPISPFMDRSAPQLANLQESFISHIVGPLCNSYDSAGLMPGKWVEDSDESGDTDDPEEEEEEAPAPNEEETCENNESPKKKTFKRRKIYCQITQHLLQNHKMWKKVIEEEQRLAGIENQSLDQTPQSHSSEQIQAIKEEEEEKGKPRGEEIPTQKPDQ

[5] = test system: recruitment of eosinophils to the lungs; experiment: Antigen induced eosinophilia in the ovalbumin sensitised guinea-pig; type: in vivo; conditions: 10 mg/kg orally 1 hour prior to antigen challenge, ovalbumin sensitised guinea-pigs
[6] = test system: guinea-pig isolated trachea; experiment: Superfusion of guinea-pig tracheal rings, contraction to electrical field stimulation; conditions: for inhibition of contractile responses, duration of action: electrical-induced contraction of guinea-pig isolated trachea; for OT50 (onset time: time to reach 50% of the maximum inhibition of the contractile response) / RT50 (recovery time: time for 50% reversal of the maximum inhibition after terminating exposure): superfused guinea-pig trachea, electrical field stimulation, 10 μM; for OT50 (onset time: time to reach 50% of the maximum inhibition of the contractile response): mean and s.e. mean of three observations; for RT50 (recovery time: time for 50% reversal of the maximum inhibition after terminating exposure): washout
Method: Superfusion of guinea-pig tracheal rings was performed according to a previously described method (Coleman et al. Pulmonary Pharmacology 9 107-117 (1996)). Briefly, guinea-pig tracheal preparations were cut into rings and then opened by sectioning the ring opposite the smooth muscle and suspended between two platinum electrodes under 1 g tension. The tissues were superfused at a rate of from 1 to 3.25 ml/min with Krebs-Henseleit solution at 37° C. containing the cyclooxygenase inhibitor, indomethacin (5 μM) and bubbled with 95% O2 and 5% CO2. Tracheal preparations were allowed to equilibrate for 40 minutes before commencement of electrical stimulation, delivered as a 10 s train of square wave pulses at 3 Hz, 0.1 ms duration and 20V (approx 400 mamps) generated every 100 sec by means of physiological square wave-stimulator. The compounds of the present invention were superfused at a rate of 0.2 to 0.3 ml/min ad contractile responses to electrical field stimulation were recorded on a Macintosh computer using MacLab sor vare. The drug was prepared in DMSO and diluted in Krebs-Henseleit solution which yielded a final superfusion concentration of 0.05 to 0.1% DMSO.
The duration of action was determined and expressed as onset time (OT50) and recovery time (RT50).

[7] = test system: histamine induced bronchospasm; experiment: Histamine induced bronchospasm, inhaled dry powder, guinea-pig; type: in vivo
Method: 1. The above compound was tested in a model of histamine induced bronchospasm. Conscious guinea-pigs were exposed to dry powder (micronised) of the compound. The drug was blended with lactose so that the final concentration was 0.25, 2.5 and 25%. At various times after exposure to drug the animals were anaesthetised and challenged with varying doses of histamine. Total airway resistance and mean arterial blood pressure were recorded.

PDE4 (human neutrophil) = experiment: PDE4 inhibition; type: biochemical

Compound | inhibition of contractile responses, duration of action [6] | OT50 (onset time: time to reach 50% of the maximum inhibition of the contractile response) [6] [min] | RT50 (recovery time: time for 50% reversal of the maximum inhibition after terminating exposure) [6] [min] | other results
COc1ccc([C@H](Cc2ccncc2)c2ccccc2)cc1OC1CCCC1 [CDP 840] | – | – | – | IC50 ([1]; n = 6): 92 nM
COc1cc2c(cc1OC)-c1cc(Oc3c(C)cccc3C)nc(=O)n1CC2 [Example 1, 6,7-Dihydro-2-(2,6-dimethylphenoxy)-9,10-dimethoxy-4H-pyrimido-[6,1-a]isoquinolin-4-one] | – | – | – | inhibition of the contractile response to electrical field stimulation [2]: complete inhibition; IC50 [3]: 5130 nM
COc1cc2c(cc1OC)-c1cc(Oc3c(C(C)C)cccc3C(C)C)nc(=O)n1CC2 [Example 2, 6,7-Dihydro-2-(2,6-diisopropylphenoxy)-9,10-dimethoxy-4H-pyrimido-[6,1-a]isoquinolin-4-one] | inhibit the contractile responses with a long duration of action | 24.9 ± 5.0 | >240 | inhibition of the contractile response to electrical field stimulation [2]: complete inhibition; effect on mean arterial blood pressure [4]: dose dependant reduction in mean arterial blood pressure; IC50 ([1]; n = 6): 250 nM; IC50 [3]: 2900 nM; IC50 (PDE3 (human platelet)): 107 nM; recruitment of eosinophils to the lungs following antigen challenge [5]: significantly inhibited; protection against histamine induced bronchospasm (total airway resistance) ([7]; conscious guinea-pigs exposed to dry powder (25% in lactose)): significant protection against histamine induced bronchospasm; effect on mean arterial blood pressure ([7]; guinea-pigs, inhaled dry powder (25%)): without changing mean arterial blood pressure; IC50 (PDE4 (human neutrophil)): 1200 nM
CCc1cccc(CC)c1Oc1cc2n(c(=O)n1)CCc1cc(OC)c(OC)cc1-2 [Example 3, 2-(2,6-diethylphenoxy)-6,7-dihydro-9,10-dimethoxy-4H-pyrimido-[6,1-a]isoquinolin-4-one] | inhibit the contractile responses with a long duration of action | 17 ± 1 | >240 | –
COc1cc2c(cc1OC)-c1cc(Oc3c(Cl)cccc3Cl)nc(=O)n1CC2 [Example 8, 2-(2,6-Dichlorophenoxy)-6,7-dihydro-9,10-dimethoxy-4H-pyrimido-[6,1-a]isoquinolin-4-one] | – | – | – | inhibition of the contractile response to electrical field stimulation [2]: complete inhibition; IC50 [3]: 8220 nM
COc1cc2c(cc1OC)-c1cc(Oc3ccccc3CC(C)C)nc(=O)n1CC2 [Example 10, 9,10-Dimethoxy-2-(2-isobutylphenoxy)-6,7-dihydro-4H-pyrimido[6,1-a]isoquinolin-4-one] | inhibit the contractile responses with a long duration of action | 17.5 ± 1.25 | >300 | –
COc1cc2c(cc1OC)-c1cc(Oc3ccccc3C(C)(C)C)nc(=O)n1CC2 [Example 11, 2-(2-tert-butylphenoxy)-9,10-dimethoxy-6,7-dihydro-4H-pyrimido[6,1-a]isoquinolin-4-one] | inhibit the contractile responses with a long duration of action | 14.7 ± 1.33 | >300 | –
CCc1ccccc1Oc1cc2n(c(=O)n1)CCc1cc(OC)c(OC)cc1-2 [Example 12, 9,10-Dimethoxy-2-(2-ethylphenoxy)-6,7-dihydro-4H-pyrimido[6,1-a]isoquinolin-4-one] | inhibit the contractile responses with a long duration of action | 9.7 ± 0.6 | 263 | –
COc1cc2c(cc1OC)-c1cc(Oc3ccccc3C3CCCC3)nc(=O)n1CC2 [Example 13, 2-(2-Cyclopentylphenoxy)-9,10-dimethoxy-6.7-dihydro-4H-pyrimido[6,1-a]-isoquinolin-4-one] | inhibit the contractile responses with a long duration of action | 18.6 ± 1.5 | >300 | –
CN/C(=N\c1ccc(C2=NNC(=O)CC2C)cc1)NC#N (centres unmarked) [Siguazodan] | – | – | – | IC50 ([1]; unit printed in the cell beside the value): > 100000 nM
COc1cc2c(cc1OC)-c1cc(=Nc3c(C)cc(C)cc3C)n(C)c(=O)n1CC2 [Trequinsin, 9,10-dimethoxy-3-methyl-2-mesitylimino-2,3,6,7-tetrahydro-4H-pyrimido[6,1-a]isoquinolin-4-one, reference compound] | – | 14 | 146 | –
